For one assay, the target named is T1, α5β1 (Homo sapiens, UniProt P05556+P08648).
T1 construct: Cells HT29, K562, or K562 transfected with αvβ3; endogenous in cells; host or cells: K562
The experiment in a line: Cell adhesion assay, K562 on fibronectin. Type of assay: cell-based. The conditions noted are these: K562 cells, adhesion to fibronectin, 1 hour. The protocol: The wells of 96-well plates (Immunolon) were coated, by incubation overnight at 4° C., with 5 ug/mL vitronectin, 2 ug/mL osteopontin, or fibronectin or 10 mg/mL BSA in PBS. The protein solution was flicked out and the wells were blocked with 10 mg/mL BSA (0.1 mL) for 1-2 hours at 37° C. Cells HT29, K562, or K562 transfected with αvβ3 (Blystone et al., 1994) were loaded with a fluorescent marker, 5-chloromethylfluorescein diacetate (Molecular Probes, Eugene, Oreg.) for 1 hour at 37° C., then incubated in fresh medium without the fluorescent marker for 1 hour. Cells were lifted with trypsin-EDTA and washed two times with Hank's balanced salt solution minus cations (Sigma) supplemented with 1 mM MgCl2 Cells (75,000 cells/well) were added to coated plates in triplicate and allowed to attach at 37° C. for 1 hour in the presence or absence of specific antibodies (5 ug/mL) or 10-fold dilutions of compounds of interest starting at 10 uM. Nonadherent cells were removed by gentle washing twice with PBS. The adherent cells were solubilized with 1% triton x-100 and detected using a fluorescence plate reader (DYNEX Technologies). The number of attached cells was calculated based upon standard curves for each cell line used in the experiment. Non-specific cell attachment (attachment to wells coated with BSA) was always less than 5%.

Assay [1] deals with Human non small-cell lung cancer cell line H460. The experiment in a line: Inhibition of metastasis in angiomouse/metamouse human lung cancer model of H460. It is filed as in vivo, athymic BALB/c nude mice. As for the experimental part:
Male and female athymic BALB/c nude mice between 4 and 5 weeks of age were used. The animals were bred and maintained in an HEPA-filtered environment with cages, food and bedding sterilized by autoclaving. The breeding pairs were obtained from the Charles River Laboratories (Wilmington, Mass.). The animal diets were obtained from Harlan Teklab (Madison, Wis.). Ampicillin (Sigma, St Louis, Mo.) 5.0% (v/v) was added to the autoclaved drinking water.
Compound VII was tested and AGM-1470 (chloroacetyl-(3R,4S,5S,6R)-5-methoxy-4-[(2R,3R)-2-methyl-3-(3-methyl-2-butenyl)oxiranyl]-1-oxaspiro[2.5]oct-6-yl ester carbamic acid) was used as a positive control. [drawing 51] The compounds were dissolved using PEG400 with heating and sonicatin. The solutions were then diluted with saline to obtain the desired concentrations (30%/70%) and stored at −20° C.
Human non small-cell lung cancer cell line H460 with expression of green fluorescent protein was obtained from the National Cancer Institute. The cells were transfected with vectors carrying the green fluorescent protein (GFP) gene. The cell line was propagated by subcutaneous implantation in nude mice.
Test animals were transplanted by surgical orthotopic implantation (SOI) using fragments harvested from subcutaneaous tumor stock animals. The animals were anesthetized with isoflurane and the surgical area was sterilized using iodine solution and alcohol. A left thoracotomy was made along the 4th intercostal space using a pair of scissors. Two pieces of H460 tumor tissue of one cubic millimiter each were sutured to the left lung using an 8-0 nylon surgical suture. The thorax was closed using a sterile 6-0 silk suture. A sterile 3-cc syringe with a 25-gauge needle was used to remove the air and inflate the lung. All surgical and animal manipulations and procedures were conducted under HEPA-filtered laminar flow hoods.
Extra numbers of mice were transplanted to compensate for postsurgical losses. The orthotopically transplanted animals used were selected to establish groups of similar mean body weight. Groups for each of the cohort conditions wre randomly chosen. The cohort was grouped as follows. A total of 10 mice were used for each dosage regimen. Administration of test compounds and vehicle by subcutaneous injection was begun three days after the orthotopic implantation.
Two animals for each treatment group were sacrificed at day-14 after orthotopic implantation of H460. The remaining animals for each group were sacrificed at day-28 after implantation. The sacrificed animals were evaluated for primary and secondary tumors. Gross examination for distant metastasis was conducted at necropsy. Tissue samples of the primary tumor and those from relevant organs such as the lung, the liver and the lymph nodes wre processed through standards procedures of hematoxylin and eosin staining for subsequent microscopic examination.
The mediastinal lymph nodes, the liver and the lung in each animal were collected. The sampled tissues were sectioned and stained, then microscopically examined. The fisher-exact test was performed to compare distant metastasis to these organs in the treated and the controls. […]

The next assay concerns HT29. The experiment in a line: Cell proliferation and cytotoxicity MTT assay, HT29. The conditions noted are these: Homo sapiens, HT-29, 72 hours culture. It is filed as cell-based. The protocol:
The wells of microtiter plates were seeded with 2000 cells/well T24, 2500 cells/well HT29 or 5000 cells/well HMVEC (Cell Systems) in 100 uL, followed by an overnight culture for cell adhesion. The next day, the media is supplemented with 100 uL of 10-fold dilution of compound of interest starting at 10 uM. Following culture for 72 hours, 3-(4,5-dimethyl-2-thiazolyl)-2,5-diphenyltetrazolium bromide (MTT; Sigma) at 2 mg/mL was added to each well (50 uL/well) and further incubated for 4 hours at 37° C. The medium was flicked out and 200 uL of a 1:1 solution of ethanol:acetone followed by 25 uL of glycine buffer (0.1 M glycine, 0.1M NaCl, pH 10.5) is added and the color measured by the absorbance at 570 nm.

Another assay addresses T2, GP IIb-IIIa (αIIbβ3) (Homo sapiens, UniProt P05106+P08514).
T2 construct: purchased Calbiochem
The experiment in a line: Fibrinogen binding to immobilized GP IIb-IIIa (αIIbβ3). As for the experimental part:
The wells of plastic microtiter plates were coated overnight at 4° C. with purified active αIIbβ3 (Calbiochem) or placental αvβ3 at 0.5 ug/mL (100 uL/well) in a buffer containing 150 mM NaCl, 20 mM Tris, pH 7.4, 1 mM MgCl2, 0.2 mM MnCl2, and including 1 mM CaCl2 for αIIbβ3. Blocking of nonspecific sites was achieved by incubating the wells with 35 mg/mL bovine serum albumin (BSA) for at least 2 hours at 37° C. Biotinylated-fibrinogen (10 nM) was added in 0.2 mL binding buffer (100 mM NaCl, 50 mM Tris, pH 7.4, 1 mM MgCl2, 0.2 mM MnCl2 and 1 mg/mL BSA including 1 mM CaCl2 for αIIbβ3) to the wells in triplicate in the absence or presence of increasing concentrations of compounds of interest (0.001-100 uM) and further incubated for 2 hours at 37° C. Nonbound fibrinogen was removed by five washes with binding buffer. Avidin conjugated to alkaline phosphatase (Sigma), diluted in binding buffer, was added and incubated for two hours at 37° C. The plates were washed five times with binding buffer, and after addition of the substrate PNPP (Pierce), the enzyme activity was measured by the absorbance at 405 nm.

The mark [2] stands for this setting: Group C, 5 mg/kg SC 2 times/day.

Several values for one entry are separate records, joined by “and”; a condition that tells them apart may be missing. Equal entries are not always repeated.

Here are results for one molecule from patent publication US6960594B2, “Thiophene and furan 2,5-dicarboxamides useful in the treatment of cancer” (Shire BioChem Inc., priority 1998, dated 2005).

As a reminder, the IC50 is the point on the concentration scale where inhibition reaches its midpoint. The low end stands for higher potency, the high end for lower potency.

T1 sequence (P08648 42-894 limits assumed): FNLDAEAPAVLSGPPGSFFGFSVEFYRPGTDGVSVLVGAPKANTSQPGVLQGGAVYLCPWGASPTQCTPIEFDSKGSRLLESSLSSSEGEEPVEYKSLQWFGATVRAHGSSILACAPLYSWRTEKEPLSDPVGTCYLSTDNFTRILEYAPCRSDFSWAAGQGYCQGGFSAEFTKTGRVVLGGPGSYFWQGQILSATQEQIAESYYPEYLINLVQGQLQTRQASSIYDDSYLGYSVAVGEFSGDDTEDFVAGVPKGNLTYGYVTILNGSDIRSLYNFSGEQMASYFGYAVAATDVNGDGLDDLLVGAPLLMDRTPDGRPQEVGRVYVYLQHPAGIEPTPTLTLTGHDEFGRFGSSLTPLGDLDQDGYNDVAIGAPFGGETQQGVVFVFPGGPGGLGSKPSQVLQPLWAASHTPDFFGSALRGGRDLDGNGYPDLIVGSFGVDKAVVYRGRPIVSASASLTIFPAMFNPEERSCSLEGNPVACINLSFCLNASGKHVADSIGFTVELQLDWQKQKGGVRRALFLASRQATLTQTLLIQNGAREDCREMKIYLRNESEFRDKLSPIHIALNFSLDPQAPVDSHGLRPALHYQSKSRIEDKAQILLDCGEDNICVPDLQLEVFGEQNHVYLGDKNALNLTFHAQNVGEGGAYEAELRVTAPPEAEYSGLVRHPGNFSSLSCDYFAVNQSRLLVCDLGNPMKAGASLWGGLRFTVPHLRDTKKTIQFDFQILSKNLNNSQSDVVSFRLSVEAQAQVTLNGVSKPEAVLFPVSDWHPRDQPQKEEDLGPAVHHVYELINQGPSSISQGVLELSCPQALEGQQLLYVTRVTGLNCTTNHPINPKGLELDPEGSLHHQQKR
T1 sequence (P08648 895-1049 partner limits assumed): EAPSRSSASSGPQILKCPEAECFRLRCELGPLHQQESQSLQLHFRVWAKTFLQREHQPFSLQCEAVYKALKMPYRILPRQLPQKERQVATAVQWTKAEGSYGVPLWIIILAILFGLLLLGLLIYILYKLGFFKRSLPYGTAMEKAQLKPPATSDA
T1 sequence (P05556 21-798): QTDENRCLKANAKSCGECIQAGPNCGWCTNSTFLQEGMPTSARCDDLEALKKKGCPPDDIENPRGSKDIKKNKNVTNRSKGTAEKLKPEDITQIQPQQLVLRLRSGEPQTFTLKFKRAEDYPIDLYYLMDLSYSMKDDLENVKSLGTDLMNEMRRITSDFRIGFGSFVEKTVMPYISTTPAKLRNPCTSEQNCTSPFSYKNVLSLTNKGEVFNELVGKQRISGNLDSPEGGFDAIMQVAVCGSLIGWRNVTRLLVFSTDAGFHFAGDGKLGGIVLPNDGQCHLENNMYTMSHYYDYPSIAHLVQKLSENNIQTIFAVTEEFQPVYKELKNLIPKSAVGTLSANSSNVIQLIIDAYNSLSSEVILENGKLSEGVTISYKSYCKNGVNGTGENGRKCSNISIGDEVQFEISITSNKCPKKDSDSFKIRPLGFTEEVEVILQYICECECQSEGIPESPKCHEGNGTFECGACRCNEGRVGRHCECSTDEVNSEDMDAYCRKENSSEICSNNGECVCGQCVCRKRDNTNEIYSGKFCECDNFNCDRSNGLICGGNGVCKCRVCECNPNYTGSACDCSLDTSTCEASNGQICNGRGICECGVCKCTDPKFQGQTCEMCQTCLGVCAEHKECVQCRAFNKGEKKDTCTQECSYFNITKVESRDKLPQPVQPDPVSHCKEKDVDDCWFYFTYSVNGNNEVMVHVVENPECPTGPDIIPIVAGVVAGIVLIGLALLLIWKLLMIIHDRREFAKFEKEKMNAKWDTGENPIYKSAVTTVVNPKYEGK
T2 sequence (P08514 32-887 limits assumed): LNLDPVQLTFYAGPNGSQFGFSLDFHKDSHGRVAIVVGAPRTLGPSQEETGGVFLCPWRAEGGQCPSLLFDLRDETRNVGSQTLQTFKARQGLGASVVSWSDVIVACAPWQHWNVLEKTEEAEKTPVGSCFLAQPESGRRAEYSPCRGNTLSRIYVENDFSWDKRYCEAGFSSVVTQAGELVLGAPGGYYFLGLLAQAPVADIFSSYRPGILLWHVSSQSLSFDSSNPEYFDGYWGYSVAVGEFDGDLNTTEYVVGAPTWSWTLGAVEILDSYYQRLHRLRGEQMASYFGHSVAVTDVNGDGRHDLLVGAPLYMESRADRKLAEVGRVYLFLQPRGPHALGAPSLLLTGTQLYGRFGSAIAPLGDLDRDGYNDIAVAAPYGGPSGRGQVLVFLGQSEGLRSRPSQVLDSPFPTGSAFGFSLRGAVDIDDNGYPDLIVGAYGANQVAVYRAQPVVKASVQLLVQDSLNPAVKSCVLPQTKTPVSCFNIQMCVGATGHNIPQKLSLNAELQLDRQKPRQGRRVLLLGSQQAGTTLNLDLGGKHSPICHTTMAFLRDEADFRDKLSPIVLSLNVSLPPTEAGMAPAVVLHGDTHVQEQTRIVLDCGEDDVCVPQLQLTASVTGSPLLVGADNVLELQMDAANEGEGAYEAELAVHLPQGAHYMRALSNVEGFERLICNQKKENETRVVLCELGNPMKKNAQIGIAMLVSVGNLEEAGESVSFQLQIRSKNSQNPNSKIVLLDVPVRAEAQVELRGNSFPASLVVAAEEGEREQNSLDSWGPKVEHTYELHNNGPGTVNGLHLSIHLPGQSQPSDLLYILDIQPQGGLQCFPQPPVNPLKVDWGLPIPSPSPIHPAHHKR
T2 sequence (P08514 891-1039 partner limits assumed): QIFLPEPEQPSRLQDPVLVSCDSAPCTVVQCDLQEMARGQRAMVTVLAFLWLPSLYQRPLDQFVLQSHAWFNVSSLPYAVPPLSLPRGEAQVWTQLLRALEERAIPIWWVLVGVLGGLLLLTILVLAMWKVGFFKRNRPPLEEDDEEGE
T2 sequence (P05106 27-788): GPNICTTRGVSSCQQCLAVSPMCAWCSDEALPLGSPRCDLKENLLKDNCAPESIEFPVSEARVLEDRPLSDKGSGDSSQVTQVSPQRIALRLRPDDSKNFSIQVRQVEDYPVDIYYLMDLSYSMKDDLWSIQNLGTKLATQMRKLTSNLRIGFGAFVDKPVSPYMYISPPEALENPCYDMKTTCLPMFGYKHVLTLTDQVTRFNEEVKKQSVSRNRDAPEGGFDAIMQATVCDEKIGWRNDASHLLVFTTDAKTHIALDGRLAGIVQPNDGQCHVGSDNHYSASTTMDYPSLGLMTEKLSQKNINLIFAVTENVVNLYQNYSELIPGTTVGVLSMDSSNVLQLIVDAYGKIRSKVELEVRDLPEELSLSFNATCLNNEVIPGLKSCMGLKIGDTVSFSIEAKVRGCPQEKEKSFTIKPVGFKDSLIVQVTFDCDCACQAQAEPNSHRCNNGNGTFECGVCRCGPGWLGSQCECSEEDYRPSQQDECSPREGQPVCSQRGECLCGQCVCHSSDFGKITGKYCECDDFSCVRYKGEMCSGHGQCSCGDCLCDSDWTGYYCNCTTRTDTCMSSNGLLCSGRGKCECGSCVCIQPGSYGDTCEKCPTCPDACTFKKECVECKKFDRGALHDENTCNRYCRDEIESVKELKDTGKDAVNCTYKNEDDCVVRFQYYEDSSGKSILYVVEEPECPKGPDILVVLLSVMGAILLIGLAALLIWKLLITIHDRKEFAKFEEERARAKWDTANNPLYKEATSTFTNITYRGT

Regarding `NCCCNC(=O)c1ccc(C(=O)NC(CC(=O)O)c2ccccc2)s1.O=C(O)C(F)(F)F` (stereo not shown) [Compound VII, 3-{[5-(3-Amino-propylcarbamoyl)-thiophene-2-carbonyl]-amino}-3-phenyl-propionic acid trifluoroacetic acid salt], the IC50 was greater than 10 µM against α5β1, greater than 10 µM in the assay with HT29 and 13.7 µM on GP IIb-IIIa (αIIbβ3). Also, the “Incidence of lung metastasis” value was 1/10 in assay [1] (setting [2]); “no lung metastasis and 0/10” in assay [1] (Group D, 50 mg/kg SC 2 times/day, trifluoroacetic acid salt, 50 mg/kg). Further, the “Incidence of lymph node metastasis” value in assay [1] (setting [2]) is 2/10; in assay [1] (Group D, 50 mg/kg SC 2 times/day), 3/10.
